According to article PMC4273984 (ACS Chemical Biology, 2014):

Tests used:
Brd4 = details: BET bromodomain inhibition; cited from earlier work
BrdT = BrdT (Homo sapiens, UniProt Q58F21); experiment: Protein-observed 19F NMR, 5FW-BrdT; format: binding; details: resonance perturbation in slow exchange
5FW-Brd4(1) = 5FW-Brd4(1) (Homo sapiens, UniProt O60885); experiment: Protein-observed 19F NMR; format: binding; details: W81 resonance perturbation
3FY-Brd4(1) = 3FY-Brd4(1) (Homo sapiens, UniProt O60885); experiment: Protein-observed 19F NMR; format: binding
Brd4(1) = Brd4(1) (Homo sapiens, UniProt O60885); details: fluorescence anisotropy or TR-FRET; cited from earlier work

SMILES: CC[C@@H]1C(=O)N(C)c2cnc(Nc3ccc(C(=O)NC4CCN(C)CC4)cc3OC)nc2N1C1CCCC1 [BI2536]
- binding to BrdT by PrOF NMR (BrdT): bind to BrdT

SMILES: CC(=O)Nc1ccc(O)cc1 [acetaminophen]
- Kd (5FW-Brd4(1)): 230 ± 30 µM
- Kd (3FY-Brd4(1)): 290 ± 40 µM
- affinity for Brd4(1) (Brd4(1)): too weak
